Key:
[1] = test system: allodynia induced by constriction of the sciatic nerve; test: allodynia induced by chronic constriction of the sciatic nerve (von Frey hairs); format: in vivo, rat; conditions: saline + antagonist alone i.pl. (ICI 10, nor-BNI 50, CTOP 20 μg/paw); for paw withdrawal threshold (allodynia), FM 1 h: 1 h after treatment; for paw withdrawal threshold (allodynia), FM 3 h: 3 h after treatment; for paw withdrawal threshold (allodynia), BM: before surgery; for paw withdrawal threshold (allodynia), IM: day 14, before treatment
Procedure: For the induction of neuropathic pain, surgery was performed in the sciatic nerve, in accordance with the method described by Bennett, G. J and Xie, Y. K. (Pain, 33:87-107, 1988). The animals were anesthetized with halothane. The sciatic nerve was exposed in the middle region of the thigh, moving away the femoral biceps muscle. Close to the trifurcation of the sciatic nerve, 7 mm of distance from the trifurcation, 4 loose ligations were performed (chromed catgut 4-0) around it, distant from each other in approximately 1 mm. The bindings were performed along the nerve, up to 4-5 mm from the initial point. The incision was sutured in layers, using silk suture thread number 4-0.
Allodynia was evaluated for quantitative testing, in response to tactile stimulus applied to the paws of the rat, according to the method described by Chaplan el al. (1994), modified. In this test, the rats were placed, individually, in plastic cages, with meshed wire at the bottom, to allow access to the paws of these animals. Briefly, a logarithmic series of 10 calibrated Semmes-Weinstein monofilaments (von Frey hairs, Aesthesiometer Semmer-Weinstein, Stoelting Co., E.U.A) was applied to the right hind paw to determine the stimulus intensity threshold stiffness required to elicit a paw withdrawal response. Log stiffness of the hairs is determined by log 10 (mg×10) having the following values (the value in grams is between parenthesis): 3.61 (0.407 g); 3.84 (0.692 g); 4.08 (1.202 g); 4.17 (1.479 g); 4.31 (2.041 g); 4.56 (3.630 g); 4.74 (5.495 g); 4.93 (8.511 g); 5.07 (11.749 g) and 5.18 (15.136 g). It is important to point out that the filaments with weight greater than 15.136 g were not employed in the studies of allodynia.
The filaments were applied, one by one, perpendicularly, under the plantar area of both hind paws and maintained for a period of 8 seconds. The filament capable of eliciting the withdrawal of the paw, two consecutive times, was considered as the force in grams necessary to elicit the response (100% of response). In the absence of a response to the greater stimulus (15.135 g), this filament was considered as cut value.
The behavioral responses were used to calculate the 50% paw withdrawal threshold (absolute threshold), by fitting a gaussian integral psychometric function, using a maximum-likelihood fitting method. This fitting method allows parametric analyses.
The period of the application of the test and the treatments were the same as those used for determination of hyperalgesia (Table 12).
The results were analyzed by comparing the means of the basal and initial measurements or, when determined, by comparing the means obtained in the different experimental groups.
For this purpose, the animals were treated with CTOP, a specific μ receptor antagonist (20 μg/paw), nor-BNI, a specific κ receptor antagonist (50 μg/paw) or with ICI 174,864, a specific δ receptor antagonist (10 μg/paw). The antagonists were injected, by intraplantar route. The peptide was administered in the dose of 5 μg/kg, orally, immediately before the injection of the opioid antagonists.
The results were analyzed comparing the mean values of the basal and initial measurements, or of the initial and final measurements or, when determined, by comparing the mean values obtained in the different experimental groups (Tables 15 and 16).

[2] = test system: carrageenin-induced hyperalgesia; test: rat paw pressure test, carrageenin-induced hyperalgesia; format: in vivo; conditions: for pain threshold, IM (g) ± S.E.M.: saline + antagonist alone i.pl. (CTOP 20, nor-BNI 50, ICI 174.864 10 μg/paw), before carrageenin; for pain threshold, FM (g) ± S.E.M: saline + antagonist alone i.pl. with carrageenin (CTOP 20, nor-BNI 50, ICI 174.864 10 μg/paw), after carrageenin
Procedure: The antinociceptive effect of the synthetic peptide was evaluated in the inflammatory hyperalgesia induced by carrageenin. […] Saline, administered by the same route was used as control.
As determined in the PGE2 model, the participation of opioid receptors in the antinociceptive effect of the peptide SEQ ID NO: 2 in the carrageenin-induced hyperalgesia (Table 10) was investigated. Therefore, the animals were treated with CTOP, a specific μ receptor antagonist (20 μg/paw), nor-BNI, a specific κ receptor antagonist (50 μg/paw) or with ICI 174.864, a specific δ receptor antagonist (10 μg/paw), injected by i.pl. route concomitantly to carrageenin. Peptide was administered in the dose of 1 μg/kg, orally, immediately before carrageenin.

[3] = test system: prostaglandin E2-induced hyperalgesia; test: rat paw pressure test, prostaglandin E2-induced hyperalgesia; conditions: for pain threshold, IM (g) ± S.E.M.: saline p.o. + antagonist alone i.pl. (ICI174,864 10 μg/paw; nor-BNI 50 μg/leg; CTOP 20 μg/leg), before PGE2; for pain threshold, FM (g) ± S.E.M: saline p.o. + antagonist alone i.pl. with PGE2 (ICI174,864 10 μg/paw; nor-BNI 50 μg/leg; CTOP 20 μg/leg), 3 h after PGE2

Row | Compound | paw withdrawal threshold (allodynia), FM 1 h [1] | paw withdrawal threshold (allodynia), FM 3 h [1] | paw withdrawal threshold (allodynia), BM [1] | paw withdrawal threshold (allodynia), IM [1] | pain threshold, IM (g) ± S.E.M. [2] | pain threshold, FM (g) ± S.E.M [2] | pain threshold, IM (g) ± S.E.M. [3] | pain threshold, FM (g) ± S.E.M [3]
1 | Oc1ccc2c3c1O[C@H]1c4[nH]c5c(c4C[C@@]4(O)[C@@H](C2)N(CC2CC2)CC[C@]314)C[C@@]1(O)[C@H]2Cc3ccc(O)c4c3[C@@]1(CCN2CC1CC1)[C@H]5O4 [nor-BNI, nor-Binalthorphimine, reference compound] | 4.22 ± 0 log 10 (mg × 10) | 4.22 ± 0 log 10 (mg × 10) | 5.08 ± 0 log 10 (mg × 10) | 4.22 ± 0 log 10 (mg × 10) | 72 ± 1.12 g | 52 ± 2.79 g | 72 ± 1.44 g | 56 ± 1.25 g
2 | CTOP [reference compound] | 4.22 ± 0 log 10 (mg × 10) | 4.22 ± 0 log 10 (mg × 10) | 5.08 ± 0 log 10 (mg × 10) | 4.22 ± 0 log 10 (mg × 10) | 73 ± 1.25 g | 49 ± 1.25 g | 74 ± 2.39 g | 56 ± 2.39 g

— patent US9109041B2, “Analog compounds of analgesic peptides derived from the venom of crotalus durissus terrificus snakes, their uses, compositions, methods of preparation and purification” (priority 2004, dated 2015)
